Measured values: PubChem BioAssay (NCI)
Where “and” joins values, the source holds several entries; their conditions need not be identical. Identical values can stand only once.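 Step 1: Grow cells in 96-well plates. Step 2: Expose to compound for 48 hours at 5 concentrations. Step 3: Interpolate endpoints linearly; if unreached, use highest concentration. Here, GI50 denotes the concentration required for 50% inhibition of growth. TGI is the concentration that stops growth completely.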

How the values were obtained:
Experiment in all cases: NCI-60 cell line screen, 48 h
A549 NSCLC = system: A549 NSCLC
HCC-2998 colon = system: HCC-2998 colon
MCF7 breast = system: MCF7 breast
NCI-H522 lung = system: NCI-H522 lung
OVCAR-3 ovarian = system: OVCAR-3 ovarian
PC-3 prostate = system: PC-3 prostate
RPMI-8226 leukemia = system: RPMI-8226 leukemia
SK-OV-3 ovarian = system: SK-OV-3 ovarian
SNB-75 CNS = system: SNB-75 CNS
UACC-62 melanoma = system: UACC-62 melanoma

Which results are given for `Cc1ccccc1C(C(=O)NC1CCCCC1)N(C(=O)CNc1ccc(C#N)cc1)c1cccc(F)c1` (stereo not given)?
GI50 (A549 NSCLC): 44 µM; TGI (A549 NSCLC): > 100 µM; GI50 (HCC-2998 colon): > 100 µM; TGI (HCC-2998 colon): > 100 µM; GI50 (MCF7 breast): 49.8 µM; TGI (MCF7 breast): > 100 µM; GI50 (NCI-H522 lung): 14.3 µM; TGI (NCI-H522 lung): > 100 µM; GI50 (OVCAR-3 ovarian): > 63 µM; TGI (OVCAR-3 ovarian): > 100 µM; GI50 (PC-3 prostate): 20.3 µM; TGI (PC-3 prostate): > 100 µM; GI50 (RPMI-8226 leukemia): > 100 µM; TGI (RPMI-8226 leukemia): > 100 µM; GI50 (SK-OV-3 ovarian): 12.9 µM; TGI (SK-OV-3 ovarian): 52.8 µM; GI50 (SNB-75 CNS): 1.38 µM; TGI (SNB-75 CNS): 8.97 µM; GI50 (UACC-62 melanoma): 18.7 µM; TGI (UACC-62 melanoma): > 100 µM

`COc1ccc(Cn2cc3c(c2-c2cc(OC)c(OC)c(OC)c2)CCc2c(CO)noc2-3)cc1` was tested. Which GI50 (A549 NSCLC) did it give?
The GI50 was 0.439 µM.

And the TGI (A549 NSCLC)?
Its TGI is over 100 µM.

What about the GI50 (HCC-2998 colon) of the same molecule?
The GI50 was 1.08 µM.

And the TGI (HCC-2998 colon)?
The TGI was 19.2 µM.

What about the GI50 (MCF7 breast) of the same molecule?
Its GI50 is 0.176 µM.

And the TGI (MCF7 breast)?
Its TGI is 17.8 µM.

What about the GI50 (NCI-H522 lung) of the same molecule?
Its GI50 is 0.206 µM.

What about the TGI (NCI-H522 lung) of the same molecule?
Its TGI is 12.2 µM.

What about the GI50 (OVCAR-3 ovarian) of the same molecule?
The GI50 was 0.312 µM.

What about the TGI (OVCAR-3 ovarian) of the same molecule?
The TGI was 12.9 µM.

What about the GI50 (PC-3 prostate) of the same molecule?
Its GI50 is 0.309 µM.

And the TGI (PC-3 prostate)?
The TGI was 41.9 µM.

What about the GI50 (RPMI-8226 leukemia) of the same molecule?
Its GI50 is 0.41 µM.

What about the TGI (RPMI-8226 leukemia) of the same molecule?
The TGI was 13.6 µM.

What about the GI50 (SK-OV-3 ovarian) of the same molecule?
Its GI50 is 0.428 µM.

And the TGI (SK-OV-3 ovarian)?
The TGI was 31.1 µM.

What about the GI50 (SNB-75 CNS) of the same molecule?
The GI50 was 0.177 µM.

What about the TGI (SNB-75 CNS) of the same molecule?
The TGI was 24.4 µM.

And the GI50 (UACC-62 melanoma)?
The GI50 was 0.354 µM.

And the TGI (UACC-62 melanoma)?
Its TGI is 20.7 µM.

With `CC1Cc2ccccc2N1C(=O)Cc1nc(N2CCOCC2)cc(=O)[nH]1` (stereo not given) as the molecule, how does the GI50 (A549 NSCLC) read?
The GI50 was 17.3 µM and 24.5 µM.

What about the TGI (A549 NSCLC) of the same molecule?
Its TGI is over 100 µM.

What about the GI50 (HCC-2998 colon) of the same molecule?
Its GI50 is 18.1 µM and 28.6 µM.

What about the TGI (HCC-2998 colon) of the same molecule?
Its TGI is over 100 µM.

What about the GI50 (MCF7 breast) of the same molecule?
The GI50 was 2.3 µM and 4.77 µM.

What about the TGI (MCF7 breast) of the same molecule?
The TGI was over 100 µM.

What about the GI50 (NCI-H522 lung) of the same molecule?
Its GI50 is 25.6 µM and 39.7 µM.

What about the TGI (NCI-H522 lung) of the same molecule?
Its TGI is over 100 µM.

What about the GI50 (OVCAR-3 ovarian) of the same molecule?
Its GI50 is 6.37 µM and 12.8 µM.

What about the TGI (OVCAR-3 ovarian) of the same molecule?
The TGI was over 100 µM.

What about the GI50 (PC-3 prostate) of the same molecule?
Its GI50 is 2.47 µM and 5.2 µM.

What about the TGI (PC-3 prostate) of the same molecule?
The TGI was over 100 µM.

And the GI50 (RPMI-8226 leukemia)?
The GI50 was 22.9 µM and > 58.3 µM.

And the TGI (RPMI-8226 leukemia)?
The TGI was over 100 µM.

What about the GI50 (SK-OV-3 ovarian) of the same molecule?
Its GI50 is 4.9 µM and 13.3 µM.

And the TGI (SK-OV-3 ovarian)?
Its TGI is over 100 µM.

What about the GI50 (SNB-75 CNS) of the same molecule?
The GI50 was 0.188 µM and 1.16 µM.

And the TGI (SNB-75 CNS)?
The TGI was > 100 µM and 23.3 µM.

What about the GI50 (UACC-62 melanoma) of the same molecule?
Its GI50 is 0.856 µM and 1.73 µM.

And the TGI (UACC-62 melanoma)?
Its TGI is over 100 µM.

How did the GI50 (A549 NSCLC) turn out when `Cc1ccccc1C(C(=O)NC1CCCCC1)N(C(=O)CNc1ncccc1F)c1cccc(F)c1` (stereo not given) was run?
The GI50 was over 100 µM.

What about the TGI (A549 NSCLC) of the same molecule?
Its TGI is over 100 µM.

And the GI50 (HCC-2998 colon)?
The GI50 was over 100 µM.

And the TGI (HCC-2998 colon)?
Its TGI is over 100 µM.

What about the GI50 (MCF7 breast) of the same molecule?
Its GI50 is over 100 µM.

What about the TGI (MCF7 breast) of the same molecule?
Its TGI is over 100 µM.

What about the GI50 (NCI-H522 lung) of the same molecule?
The GI50 was 74.9 µM.

And the TGI (NCI-H522 lung)?
Its TGI is over 100 µM.

What about the GI50 (OVCAR-3 ovarian) of the same molecule?
The GI50 was over 100 µM.

And the TGI (OVCAR-3 ovarian)?
Its TGI is over 100 µM.

And the GI50 (PC-3 prostate)?
Its GI50 is over 100 µM.

What about the TGI (PC-3 prostate) of the same molecule?
Its TGI is over 100 µM.

And the GI50 (RPMI-8226 leukemia)?
The GI50 was over 100 µM.

And the TGI (RPMI-8226 leukemia)?
The TGI was over 100 µM.

And the GI50 (SK-OV-3 ovarian)?
Its GI50 is 20.8 µM.

What about the TGI (SK-OV-3 ovarian) of the same molecule?
Its TGI is over 61 µM.

And the GI50 (SNB-75 CNS)?
The GI50 was 6.14 µM.

And the TGI (SNB-75 CNS)?
Its TGI is 24.6 µM.

And the GI50 (UACC-62 melanoma)?
Its GI50 is over 75.4 µM.

And the TGI (UACC-62 melanoma)?
The TGI was over 100 µM.

With `Cc1ccc(OCCOCCOCCOCCOCCOc2ccc(C)n(O)c2=S)c(=S)n1O` as the molecule, how does the GI50 (A549 NSCLC) read?
Its GI50 is 0.0741 µM.

And the TGI (A549 NSCLC)?
Its TGI is over 100 µM.

What about the GI50 (HCC-2998 colon) of the same molecule?
The GI50 was 0.444 µM.

What about the TGI (HCC-2998 colon) of the same molecule?
The TGI was 46.9 µM.

And the GI50 (MCF7 breast)?
The GI50 was 0.0254 µM.

And the TGI (MCF7 breast)?
The TGI was over 69.7 µM.

What about the GI50 (NCI-H522 lung) of the same molecule?
Its GI50 is 0.0386 µM.

And the TGI (NCI-H522 lung)?
Its TGI is over 100 µM.

And the GI50 (OVCAR-3 ovarian)?
The GI50 was 0.0377 µM.

And the TGI (OVCAR-3 ovarian)?
Its TGI is 18.7 µM.

And the GI50 (PC-3 prostate)?
The GI50 was 0.345 µM.

And the TGI (PC-3 prostate)?
The TGI was over 100 µM.

What about the GI50 (RPMI-8226 leukemia) of the same molecule?
The GI50 was 0.0713 µM.

And the TGI (RPMI-8226 leukemia)?
The TGI was over 100 µM.

What about the GI50 (SK-OV-3 ovarian) of the same molecule?
The GI50 was 0.0583 µM.

And the TGI (SK-OV-3 ovarian)?
The TGI was over 48 µM.

What about the GI50 (SNB-75 CNS) of the same molecule?
Its GI50 is 0.456 µM.

And the TGI (SNB-75 CNS)?
The TGI was 18.1 µM.

What about the GI50 (UACC-62 melanoma) of the same molecule?
Its GI50 is 0.0815 µM.

And the TGI (UACC-62 melanoma)?
The TGI was 12.5 µM.

Which results are given for `CCNCCNc1cc(-c2ccc(C(F)(F)F)cc2)c(C#N)c2nc3cc(Cl)c(Cl)cc3n12`?
GI50 (A549 NSCLC): 1.37 µM; TGI (A549 NSCLC): 2.77 µM; GI50 (HCC-2998 colon): 2.34 µM; TGI (HCC-2998 colon): 4.14 µM; GI50 (MCF7 breast): 0.168 µM; TGI (MCF7 breast): 0.352 µM; GI50 (NCI-H522 lung): 1.78 µM; TGI (NCI-H522 lung): 3.37 µM; GI50 (OVCAR-3 ovarian): 1.66 µM; TGI (OVCAR-3 ovarian): 3.13 µM; GI50 (PC-3 prostate): 1.71 µM; TGI (PC-3 prostate): 3.4 µM; GI50 (RPMI-8226 leukemia): 1.71 µM; TGI (RPMI-8226 leukemia): 3.85 µM; GI50 (SK-OV-3 ovarian): 2.01 µM; TGI (SK-OV-3 ovarian): 3.45 µM; GI50 (SNB-75 CNS): 1.38 µM; TGI (SNB-75 CNS): 2.69 µM; GI50 (UACC-62 melanoma): 1.84 µM; TGI (UACC-62 melanoma): 3.57 µM
